Test results from publication PMC7504721, “Targeting the Initiator Protease of the Classical Pathway of Complement Using Fragment-Based Drug Discovery” (Molecules, 2020).

Biological target: T1, full-length C1r (Homo sapiens, UniProt P00736)
T1 construct: purchased Complement Technology (CompTech)
T1 sequence (P00736 18-463 limits assumed): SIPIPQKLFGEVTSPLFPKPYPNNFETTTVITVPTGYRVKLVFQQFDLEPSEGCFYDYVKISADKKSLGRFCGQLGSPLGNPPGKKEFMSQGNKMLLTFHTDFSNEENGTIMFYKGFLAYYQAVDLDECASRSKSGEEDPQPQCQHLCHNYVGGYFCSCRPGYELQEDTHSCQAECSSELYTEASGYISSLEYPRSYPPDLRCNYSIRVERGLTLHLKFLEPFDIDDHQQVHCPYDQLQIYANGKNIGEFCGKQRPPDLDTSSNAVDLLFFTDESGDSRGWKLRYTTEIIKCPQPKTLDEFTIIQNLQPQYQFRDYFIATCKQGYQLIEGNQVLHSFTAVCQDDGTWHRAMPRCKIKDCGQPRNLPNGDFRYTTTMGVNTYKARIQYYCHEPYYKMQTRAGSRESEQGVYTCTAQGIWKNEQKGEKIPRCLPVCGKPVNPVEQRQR
T1 sequence (P00736 464-705 limits assumed): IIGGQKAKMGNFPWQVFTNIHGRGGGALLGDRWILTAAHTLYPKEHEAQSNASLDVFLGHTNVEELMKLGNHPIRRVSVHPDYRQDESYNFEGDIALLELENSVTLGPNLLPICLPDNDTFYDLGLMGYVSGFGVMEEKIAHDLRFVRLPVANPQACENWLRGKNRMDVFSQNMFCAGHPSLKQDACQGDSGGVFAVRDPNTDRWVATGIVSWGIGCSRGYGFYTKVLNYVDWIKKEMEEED
Test: SPR domain mapping, full-length C1r surface
Type: binding
Conditions: duplicate
Description: Figure 5 Selectivity and mechanistic analysis of CMP-1611 and CMP-1696. (A) Chemical structure of CMP-1611. (B) Chemical structure of CMP-1696. (C) Dose-dependent inhibition by CMP-1611 and CMP-1696 in a classical pathway-specific ELISA. Data were fit with GraphPad Prism using non-linear regression with a log(inhibitor) vs. response model. […] The CMP-778 inhibitory response could not be fit to a dose-response inhibition model. (D) Complement pathway selectivity of CMP-1611 and CMP-1696. Compounds were assessed for their ability to inhibit activation of complement via the lectin and alternative pathways using single doses of 500 μM compound in triplicate. To ensure only lectin pathway activation, 2% (v/v) C1q-depleted serum (CompTech) was used and mannan was used as the activator. To match serum sources and amounts for this assay, the classical pathway assays were repeated here using serum from CompTech at 2% (v/v) final concentration. Alternative pathway activation assays were performed using 20% (v/v) serum (CompTech), alternative pathway buffers, and C3b detection (see Methods and Materials for details). […] We then injected each compound simultaneously over the three surfaces at 500 μM and measured binding responses. […] All sensorgrams were reference and blank subtracted and analyzed using T200 Evaluation Software (GE Healthcare, Chicago, IL, USA).

| Structure (SMILES) | relative SPR binding response, full-length C1r (10 µM Futhan) | relative SPR binding response, full-length C1r (500 µM compound) |
| --- | --- | --- |
| N=C(N)c1ccc2cc(OC(=O)c3ccc(N=C(N)N)cc3)ccc2c1 [Futhan, reference compound] | bound C1r and C1r-CCP2-SP similarly | – |
| COCc1nc(-c2ccc(OC3CNC3)cc2)no1 [CMP-1696] | – | high binding |
